From US20040146971A1, “Novel p53 inducible protein” (priority 2001, published 2004)
Starred links: 1 amine or outer side, 2 acyl side, 3 side chain; linkers in the order of their positions; H or OH if unused. Positions of bridges follow the written chain, without caps; N, C: chain ends. Non-standard residues stand in square brackets, D forms with d. Residues, ends and D or L forms follow the SMILES beside them. Chains are numbered I, II in the order given. Actinocin(9to1) = Cc1c2oc3c(C)ccc(C(=O)[*:1])c3nc-2c(C(=O)[*:2])c(N)c1=O; NMeV = CN[C@H](C(=O)O)C(C)C; Sar = CNCC(=O)O

Assays:
[1] = test system: NIH3T3-derived Scotin antisense and control antisense fibroblasts; test: Cell survival by Giemsa staining, Scotin antisense versus control antisense fibroblasts; format: cell-based, mouse; conditions: different doses
Description: Cell survival was determinated as described in the Experimental Procedures by trypan blue 24 h after irradiation. Histogram represents the compilation of 4 independent experiments. Standard Deviation is reported as error bars. b) Clonoge assay; Scotin antisense and control antisense expressing fibroblasts were treated at concentrations indicated with the DNA-damaging agent Doxorubicin (Dx) or with the activators of ER stress Thapsigargin (Tg) or Tunicamycin (Tu) or with an activator of mitochondrial stress, FCCP. After treatment, cells were fixed in methanol and stained by Giemsa.
Cells were treated with different doses of doxorubicin for 24 h and were allowed to recover for 24 h after treatment. Cell survival was estimated by giemsa staining.
(§1) The list of conditions known to trigger the ER stress response includes treatment of cells with thapsigargin, which interferes with calcium flux across the ER membrane, or tunicamycin, an inhibitor of N-linked glycosylation, or reducing agents, or deprivation of nutrients such as glucose, amino acids, or hypoxia. […] NIH3T3, p53−/−, Scotin antisense and control antisense expressing fibroblasts were treated with different doses of thapsigargin or tunicamycin or FCCP, a protonophore inducing mitochondrial stress. Cell survival was estimated by giemsa staining (FIG. 12.3).

NIH3T3 fibroblasts = test: TUNEL staining of drug-treated NIH3T3 fibroblasts; format: cell-based, mouse; conditions: NIH3T3, 24 h; tunicamycin 1 μg/ml, thapsigargin 150 nM
Description: NIH3T3 fibroblasts were treated for 24 h with 1 μg/ml of tunicamycin, fixed by paraformaldehyde and stained by TUNEL. Cells in apoptosis are stained by TUNEL (eft hand images).
For TUNEL assay, cells (3×10^5) seeded on 2-well glass chamber slide, were transfected as described. Cells were fixed for 30 min at RT in 4% paraformaldehyde in PBS, washed in PBS and permeabilised 2 min at 4° C. in 0.1% Triton X-100, 0.1% sodium citrate. The TUNEL staining was performed accordingly to the manufacturer's protocol (In Situ Cell Death Detection kit, Roche Molecular Biochemicals). The apoptotic cells presenting fragmented DNA were then labelled in green after incorporation of fluorescein.

p53−/− fibroblasts = test: Apoptosis of p53-/- fibroblasts after ER stress activators; format: cell-based, mouse
Description: as §1

Scotin [2] = test: Western blot of Scotin protein induction in human fibroblasts and tumour cell lines; format: cell-based
Description: (§2) FIG. 7 is a western blot which illustrates that p53 is necessary and sufficient to induce Scotin protein expression. a) Only primary mouse embryonic fibroblasts (MEF) expressing WTp53 induce Scotin after UV irradiation or Actinomycin D treatment. MEF from p53−/− and p53+/+ littermate mice were exposed to UV-C light (20 J/m2) or Actinomycin D (60 ng/ml). Proteins were extracted at time indicated after treatment and analysed by Western blot by using affinity purified rabbit polyclonal anti-mouse-Scotin antibody. As a positive control, p53 and Waf induction were determined by using CM5 rabbit polyclonal anti-mouse p53 antibody and F5 mouse monoclonal anti-Waf antibody. […] Scotin expression was analysed by Western blot by using affinity purified rabbit polyclonal anti-human Scotin antibody. […]
(§3) Cells were washed and scraped in PBS buffer and centrifuged at 2000 rpm for 2 min. […] Protein concentration of the supernatant was determined by the Bradford assay. […]
(§4) In order to further characterise Scotin protein, it was essential to identify cell lines that could induce Scotin upon DNA damage. […] Proteins were extracted after treatment and levels analysed by Western blot Waf and p53 protein levels were used as an indication of p53 activation.

Scotin [3] = test: Western blot of Scotin protein induction in mouse embryonic fibroblasts; format: cell-based; conditions: 60 ng/ml
Description: as §2, §3, §4

| Molecule | resistance of Scotin antisense cells compared with control antisense cells to cell death induced by the drug [1] | apoptosis induced by the drug in p53−/− fibroblasts (p53−/− fibroblasts) | other results |
| --- | --- | --- | --- |
| COc1cccc2c1C(=O)c1c(O)c3c(c(O)c1C2=O)C[C@@](O)(C(=O)CO)C[C@@H]3O[C@H]1C[C@H](N)[C@H](O)[C@H](C)O1 [doxorubicin] | more resistant | – | – |
| tunicamycin | more resistant | resistant | cell death by TUNEL (NIH3T3 fibroblasts): die by apoptosis |
| N#CC(C#N)=NNc1ccc(OC(F)(F)F)cc1 [FCCP] | not | – | – |
| C/C=C(/C)C(=O)O[C@H]1C(C)=C2[C@H]([C@@H]1OC(=O)CCCCCCC)[C@@](C)(OC(C)=O)C[C@H](OC(=O)CCC)[C@@]1(O)[C@H]2OC(=O)[C@@]1(C)O [thapsigargin] | more resistant | resistant | – |
| Cc1c2oc3c(C)ccc(C(=O)N[C@@H]4C(=O)N[C@H](C(C)C)C(=O)N5CCC[C@H]5C(=O)N(C)CC(=O)N(C)[C@@H](C(C)C)C(=O)O[C@@H]4C)c3nc-2c(C(=O)N[C@@H]2C(=O)N[C@H](C(C)C)C(=O)N3CCC[C@H]3C(=O)N(C)CC(=O)N(C)[C@@H](C(C)C)C(=O)O[C@@H]2C)c(N)c1=O [Actinomycin D] (I: T[dV]P[Sar][NMeV] / II: T[dV]P[Sar][NMeV]; ester I:1-I:C, II:1-II:C; linker I:N-II:N via Actinocin(9to1)) | – | – | Scotin protein level (Scotin [2]; human primary fibroblast and tumour cells expressing wt p53, 60 ng/ml): clearly accumulated; Scotin protein level (Scotin [2]; human tumour cell lines devoid of p53 expression, 60 ng/ml): not; Scotin protein level (Scotin [3]; p53+/+ MEF): clearly accumulated; Scotin protein level (Scotin [3]; p53−/− MEF): not |
